Laboratory results taken from article PMC10526139, “Molecular and Pharmacokinetic Aspects of the Acetylcholinesterase-Inhibitory Potential of the Oleanane-Type Triterpenes and Their Glycosides” (Biomolecules, 2023).

Tests used:
[1] = target: T1, AChE from electric eel type VI-S (Electrophorus electricus, UniProt O42275); test: TLC-bioautography assay towards AChE inhibition; type: biochemical
T1 construct: purchased Sigma Aldrich
Method: Six standards of oleanane-type triterpenes: arjunic acid, arjunolic acid, arjungenin, arjunglucoside I, sericic acid and arjunetin—purchased from Sigma Aldrich (St. Louis, MO, USA)—were prepared at the concentration of 1 mg/mL in double-distilled water: methanol (50:50 v/v) and they were applied separately at the surface of the aluminum normal phase 10 cm × 10 cm TLC plate (Silica gel 60 F254, Merck, Darmstadt, Germany) with an autosampler (Camag, Muttenz, Switzerland) as the 6 mm zones, distant from one another by 1.5 cm horizontally and 2 cm vertically. Every reference solution was applied as 4, 6, 8 and 10 µL volume bands on three TLC plates.
The TLC plates were later subjected to the enzymatic assay according to the previously published protocol, with some modifications.
As the TLC plate was not developed in a TLC solvent system but was used directly in the TLC bioautographic assay, the authors modified the previously published protocol and sprayed the TLC with the substrate (2-naphtyl acetate; Sigma Aldrich, St. Louis, […], USA) dissolved in distilled water at the quantity of 30 mg/20 mL. The TLC was dried in cold air and later the solution of the AChE enzyme (AChE from electric eel type VI-S, Sigma Aldrich, St. Louis, […], USA) dissolved in the aqueous solution of Tris-HCl buffer (pH 7.8; Sigma Aldrich, St. Louis, […], USA) with […] (500 mg/100 mL, Sigma Aldrich, St. Louis, […], USA) at the quantity of 3 U/mL was sprayed on the TLC plate and incubated at the temperature of 37 °C for the following 20 min in a humid incubator. In the next step, the Fast Blue B (Sigma Aldrich, St. Louis, […], USA) solution (0.615 mg/mL) was sprayed on the plate and visualized active zones as white spots against the violet background. The area of the discolored zones corresponded to the inhibitory strength of the respective zones.
Finally, the TLC plate was dried in the air and analyzed by a Camag TLC visualizer (Camag, Muttenz, Switzerland) under visible light. The peak areas of the discolored zones were automatically calculated by the WinCats program (version 1.4, Camag, Muttenz, Switzerland) and their size was compared to calculate the IC50 values that corresponded to the concentration of the standard giving the half maximum inhibition of the AChE enzyme.

[2] = tested on: AChE; conditions: AChE inhibition; cited from earlier work

T1 sequence (O42275 24-633): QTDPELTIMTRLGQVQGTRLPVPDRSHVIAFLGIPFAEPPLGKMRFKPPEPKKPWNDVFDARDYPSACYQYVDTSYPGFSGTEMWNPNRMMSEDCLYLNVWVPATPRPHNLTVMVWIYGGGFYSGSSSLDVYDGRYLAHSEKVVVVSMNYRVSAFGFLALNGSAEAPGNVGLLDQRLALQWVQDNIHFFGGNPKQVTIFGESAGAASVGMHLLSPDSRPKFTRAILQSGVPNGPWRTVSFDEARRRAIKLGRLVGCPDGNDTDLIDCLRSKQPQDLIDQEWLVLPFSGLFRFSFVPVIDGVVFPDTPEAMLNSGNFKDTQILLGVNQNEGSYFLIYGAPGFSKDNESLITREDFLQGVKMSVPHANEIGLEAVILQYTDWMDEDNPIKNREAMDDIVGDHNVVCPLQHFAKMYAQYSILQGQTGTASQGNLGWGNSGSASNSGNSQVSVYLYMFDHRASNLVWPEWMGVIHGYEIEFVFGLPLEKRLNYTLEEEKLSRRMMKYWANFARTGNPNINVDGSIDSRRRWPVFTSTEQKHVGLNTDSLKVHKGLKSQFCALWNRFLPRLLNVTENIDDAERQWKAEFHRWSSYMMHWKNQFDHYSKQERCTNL

| Compound | IC50 [1] [µM] | IC50 [2] [µM] |
| --- | --- | --- |
| CC1(C)CC[C@]2(C(=O)O[C@@H]3O[C@H](CO)[C@@H](O)[C@H](O)[C@H]3O)CC[C@]3(C)C(=CC[C@@H]4[C@@]5(C)C[C@@H](O)[C@H](O)C(C)(C)[C@@H]5CC[C@]43C)[C@@H]2[C@@H]1O [Arjunetin] | 18.8 | – |
| CC1(C)CC[C@]2(C(=O)O)CC[C@]3(C)C(=CC[C@@H]4[C@@]5(C)C[C@@H](O)[C@H](O)[C@@](C)(CO)[C@@H]5CC[C@]43C)[C@@H]2[C@@H]1O [Arjungenin] | 19.5 | – |
| CC1(C)CC[C@]2(C(=O)O[C@@H]3O[C@H](CO)[C@@H](O)[C@H](O)[C@H]3O)CC[C@]3(C)C(=CC[C@@H]4[C@@]5(C)C[C@@H](O)[C@H](O)[C@@](C)(CO)[C@@H]5CC[C@]43C)[C@@H]2[C@@H]1O [Arjunglucoside I] | 13.2 | – |
| CC1(C)CC[C@]2(C(=O)O)CC[C@]3(C)C(=CC[C@@H]4[C@@]5(C)C[C@@H](O)[C@H](O)C(C)(C)[C@@H]5CC[C@]43C)[C@@H]2[C@@H]1O [Arjunic acid] | 20.7 | – |
| CC1(C)CC[C@]2(C(=O)O)CC[C@]3(C)C(=CC[C@@H]4[C@@]5(C)C[C@@H](O)[C@H](O)[C@@](C)(CO)[C@@H]5CC[C@]43C)[C@@H]2C1 [Arjunolic acid] | 16.2 | – |
| CC1(C)CC[C@]2(C(=O)O)CC[C@]3(C)C(=CC[C@@H]4[C@@]5(C)C[C@@H](O)[C@H](O)[C@](C)(CO)[C@@H]5CC[C@]43C)[C@@H]2[C@@H]1O [Sericic acid] | 16.4 | – |
| C[C@H]1[C@H](C)CC[C@]2(C(=O)O)CC[C@]3(C)C(=CC[C@@H]4[C@@]5(C)C[C@@H](O)[C@H](O)[C@@](C)(CO)[C@@H]5CC[C@]43C)[C@H]12 [asiatic acid] | – | 15.05 ± 0.05 |
